Data: paper PMC8557901 (Microbiology Spectrum, 2021)
Read-outs that look alike come from different tables or passages of the source.

Legend:
[1] = system: P. falciparum liver-stage parasites in human primary hepatocytes; assay: In vitro liver-stage development, P. falciparum in human primary hepatocytes; format: cell-based, Plasmodium falciparum
Description: Primary human hepatocytes were isolated from liver segments obtained from adult patients undergoing partial hepatectomy (Service de Chirurgie Digestive, Hépato-Bilio Pancréatique, Hôpital Pitié Salpêtrière, Paris, France). Primary simian hepatocytes were isolated from liver segments collected from healthy Macaca fascicularis monkeys from CEA, Fontenay aux Roses, France. All hepatocytes were obtained using collagenase perfusion as previously described ([40]). […] Primary murine hepatocytes were isolated from liver segments collected from BALB/c mice. Human and murine hepatocytes were used directly after their isolation. Cells were seeded in 96-well plates (Falcon; Becton Dickinson Labware Europe, France) coated with collagen I (BD Bioscience, USA) at a density of 80,000 cells per well. […] For human hepatocytes, the complete medium was supplemented with 2% dimethyl sulfoxide (DMSO; Sigma-Aldrich, USA) before infection to preserve their differentiation.
(§1) On the day of infection, 3 · 10^4 sporozoites of P. falciparum, P. yoelii, and P. cynomolgi were added to their respective host cell cultures (human, murine, and simian). The infected culture plates were centrifuged for 10 min at 900 × g, allowing fast parasite sedimentation, and further incubated with serial dilutions of M1. Culture medium containing the appropriate drug concentration was refreshed daily, and cells were fixed at 48 h postinfection (p.i.) for infections with P. yoelii, 6 days p.i. for P. falciparum, or 8 days p.i. for P. cynomolgi. For the in vitro sporozoite invasion experiments, P. falciparum sporozoites were preincubated with 1, 10, and 100 μM M1 for 1 h at room temperature before hepatocyte infections. Three hours later, after sporozoite penetration into hepatocytes, cultures were washed and then further incubated with or without the presence of the drug during 6 days. DMSO was used as a negative control.
(§2) The number, size, and shape of the parasites were determined using a CellInsight high-content screening platform equipped with Studio HCS software (ThermoFisher Scientific). […] Host cell and parasite nuclei were labeled with DAPI (4′,6-diamidino-2-phenylindole). […] The custom script used for counting and measuring parasites first required identification of the objects based on a fluorescence intensity threshold. The object identity was then further validated based on size and morphological (shape) criteria. The presence of DAPI-associated fluorescence in the selected objects allowed their final selection and the rejection of false positives. […] The parasitic size reduction was calculated on the average object area using the total surface area of each selected object (μm^2).

[2] = system: P. falciparum sporozoites invading primary human hepatocytes; assay: Hepatocyte invasion by preincubated P. falciparum sporozoites; conditions: Plasmodium falciparum, Hepatocyte, in Homo sapiens, sporozoites preincubated 1 h; for inhibition at 1 µM: read-out: inhibition of invasion of sporozoites into hepatocytes, 1 μM; for inhibition at 10 µM: read-out: inhibition of invasion of sporozoites into hepatocytes, 10 μM; for inhibition at 100 µM: read-out: inhibition of invasion of sporozoites into hepatocytes, 100 μM
Experimental: as §1, §2

[3] = system: P. falciparum F32-ART5 and F32-TEM; assay: Recrudescence assay F32-ART5 versus F32-TEM; format: cell-based, Plasmodium falciparum; conditions: 48 h drug exposure; M1 2.5 and 10 μM; artemisinin 18 μM
Experimental: The Plasmodium falciparum artemisinin-resistant strain F32-ART5 and its twin artemisinin-sensitive line F32-TEM ([30], [31]) were cultivated at 37°C with 5% CO2 in human red blood cells (EFS [French Blood Bank]) diluted to 2% hematocrit in RPMI 1640 medium supplemented with 5% human serum (EFS) as previously reported ([47]).
A recrudescence assay was performed to evaluate the ability of the F32-ART5 parasite line to survive drug exposure in comparison to that of the F32-TEM parasite line ([30], [31]) in order to evaluate the risk of cross-resistance between artemisinin and M1. D-Sorbitol-synchronized ring-stage parasites at 3% parasitemia (2% hematocrit) were exposed to the drug for 48 h. After drug exposure, parasite cultures were washed with RPMI 1640 medium and replaced in normal drug-free culture conditions. The time to parasite recrudescence was determined as the time required to reach initial parasitemia. […] Each experiment, performed in parallel for F32-ART5 and F32-TEM cultivated under the same conditions to generate paired results, was carried out at least three times independently and data statistically analyzed.
A statistical analysis (log-rank test) was carried out on data from the recrudescence assay and the QSA using a Kaplan-Meier survival analysis considering censored data. The final event was defined as the time necessary for cultures to reach initial parasitemia. […]

[4] = system: P. yoelii in mice and Anopheles stephensi; assay: In vivo transmission-blocking mosquito feeding assay; conditions: for No. of mosquitoes infected/total no. of mosquitoes (%): untreated 82.8; for No. of oocysts per mosquito: untreated 106; for Mean % parasitemia ± SD: day 4 p.i. in mice prior to mosquito feeding, untreated 0.97 ± 0.17; for Mean % gametocytemia ± SD: day 4 p.i. in mice, untreated 0.05 ± 0.004
Experimental: Experimental mice were infected by i.p. inoculations of 10^7 erythrocytes parasitized with P. yoelii GOMO 15 to test the effect of M1 following two different protocols of drug treatment. Infected mice were randomly allocated into 6 groups (5 mice per group) corresponding to the 3 conditions (control [solvent], M1 50 mg/kg, and PQ 50 mg/kg) in both drug administration protocols. For the first protocol, mice were treated daily from day zero to day 3, while for the second protocol, treatment was administered only once, 4 days after the infection and 2 h before mosquito feeding ([37]). At day 3 p.i., the presence and maturity of gametocytes was checked by microscopic examination of Giemsa-stained thin blood films and live-blood observation to assess microgamete exflagellation density. Mice were then anesthetized and placed according to the treatment on the top of individual cages containing 100 glucose-starved Anopheles stephensi female mosquitoes, which were allowed to feed for 1 h. Unfed mosquitoes were removed from the cages. Seven days after the infectious blood meal, 30 mosquitoes were dissected and their midguts examined using a phase-contrast microscope (400×) to assess the presence of oocysts. Two weeks after the blood meal, the salivary glands of 30 mosquitos were dissected to estimate the average number of sporozoites per mosquito in each group.

HepG2 or CHO cell lines = system: HepG2 or CHO cell lines; set-up: method as in PMID 25791675; conditions: cited from earlier work
[5] = cultures additionally treated until day 6
[6] = cultures then without drug for 6 days
[7] = 50 mg/kg i.p. every day D0 to D3
[8] = 50 mg/kg i.p. on day 3, 2 h before feeding

Cc1ccc(-c2cc3nc(NC(C)(C)C)[nH]c(=O)c3s2)cc1 [Metabolite M1, 2-(tert-Butylamino)-6-(p-tolyl)thieno[3,2-d]pyrimidin-4(3H)-one]
concentration from which liver-stage development was fully inhibited ([1]; P. falciparum in human hepatocytes): 14 µM | EC50 ([1]; Plasmodium falciparum, Hepatocyte, P. falciparum in human primary hepatocytes (HH), mean ± SEM of triplicate experiments, read-out: EC50 against liver-stage parasites): 0.45 ± 0.15 µM | SI (selectivity index) ([1]; hepatocyte CC50/EC50, P. falciparum (HH)): >133 | Size reduction at 10 μM (%) ([1]; parasite (schizont) size, 10 μM, P. falciparum (HH)): 80% | inhibition at 1 µM [2, 5]: 80% | inhibition at 1 µM [2, 6]: 30% | inhibition at 10 µM [2, 5]: 100% | inhibition at 10 µM [2, 6]: 60% | inhibition at 100 µM [2, 5]: 100% | inhibition at 100 µM [2, 6]: ~100% | recrudescence of F32-ART5 versus F32-TEM (cross-resistance with artemisinin) [3]: no cross-resistance with artemisinin | reduction in parasitemia before mosquito feeding ([4]; 50 mg/kg during D0 to D3, day 4): 50% | No. of mosquitoes infected/total no. of mosquitoes (%) [4, 7]: 25/35 (71.4) % | No. of oocysts per mosquito [4, 7]: 32 | No. of mosquitoes infected/total no. of mosquitoes (%) [4, 8]: 13/35 (37.1) % | No. of oocysts per mosquito [4, 8]: 1 | Mean % parasitemia ± SD [4, 7]: 0.47 ± 0.24% | Mean % parasitemia ± SD [4, 8]: 0.99 ± 0.34% | Mean % gametocytemia ± SD [4, 7]: 0.04 ± 0.009% | Mean % gametocytemia ± SD [4, 8]: 0.04 ± 0.01% | CC50 (HepG2 or CHO cell lines): ≥ 25 µM
